One series relates to IL-8. Kind of series: IL-8 expression in infected supernatant of DENV-infected Meg-01 cells, enzyme immunoassay. The class given is cell-based, human. As to conditions: after dengue virus infection, extract at IC10 concentration. Here is the method: (§1) 2×10^4 Meg-01 cells are lysed in a RPMI culture medium containing 10% fetal bovine serum for in vitro infection with dengue virus. The infection condition is 1 MOI, a total volume of virus sap and cell sap is 2 ml, and the selected virus is dengue virus type 2 (DENV-2), strain 16681. The infection mixture is cultured in a 37° C. incubator for 2 hours, and the tube is shaken once every 30 minutes to increase a chance of virus contacting the cells. After 2 hours, centrifuge (600 rpm, 6 minutes) with a centrifuge to remove the virus that is not in contact with the cells, and re-lyse the cells with an appropriate amount of a cell culture medium, and then divide the cells into a cell culture medium (2 ml) or into a cell culture medium additional added with the Antrodia camphorata extract ZAC and the Antrodia camphorata extract YS-1, the centrifuge tube is finally placed in a 37° C. incubator, and the infection supernatant is collected at specific infection time points (time points: 2 hours, and 1, 2, 3, 5, 7 days after infection). The infection mixture is taken out at the specific time points, centrifuged with a centrifuge (600 rpm, 6 minutes), the infection supernatant is separated, and a viral titer is assayed by viral plaque assay and an expression of cytokines is assayed by enzyme combined with immunosorbent assay. […]

Series [1] relates to dengue virus type 2 (DENV-2), strain 16681. As to the kind of experiment: Dengue virus infection of Meg-01 cells, viral titer by plaque assay. It is filed as cell-based. To be noted: for dengue viral titer versus infected control: p value<0.0001. Here is the method: 2×10^4 Meg-01 cells are lysed in a RPMI culture medium containing 10% fetal bovine serum for in vitro infection with dengue virus. The infection condition is 1 MOI, a total volume of virus sap and cell sap is 2 ml, and the selected virus is dengue virus type 2 (DENV-2), strain 16681. The infection mixture is cultured in a 37° C. incubator for 2 hours, and the tube is shaken once every 30 minutes to increase a chance of virus contacting the cells. After 2 hours, centrifuge (600 rpm, 6 minutes) with a centrifuge to remove the virus that is not in contact with the cells, and re-lyse the cells with an appropriate amount of a cell culture medium, and then divide the cells into a cell culture medium (2 ml) or into a cell culture medium additional added with the Antrodia camphorata extract ZAC and the Antrodia camphorata extract YS-1, the centrifuge tube is finally placed in a 37° C. incubator, and the infection supernatant is collected at specific infection time points (time points: 2 hours, and 1, 2, 3, 5, 7 days after infection). The infection mixture is taken out at the specific time points, centrifuged with a centrifuge (600 rpm, 6 minutes), the infection supernatant is separated, and a viral titer is assayed by viral plaque assay and an expression of cytokines is assayed by enzyme combined with immunosorbent assay.
7×10^5/well […] kidney epithelial cells (BHK cells) are lysed in 1.5 ml of a DMEM culture medium containing 5% fetal bovine serum and seeded on a 6-well plate. The virus solution to be tested will be serially diluted first. The preparation method is to add 100 μL of unknown virus solution to 900 μL of a DMEM culture medium containing 2% fetal bovine serum to achieve a 10-fold dilution. After the cells to be seeded are attached onto the plate, remove the culture medium, add 400 μL of the virus solution to be tested, and culture in a 37° C. incubator for 2 hours. The plate needs to be shaken once every 15 minutes so that the infection solution can evenly cover the cells. After two hours, the infection solution is removed, methylcellulose is added to limit a range of virus movement, and the plate is placed back into the 37° C. incubator to culture for 7 days. […] Finally, the dye is washed off with clean water, and a number of plaques formed is counted to calculate the viral titer. […]
2 hours after the […] cells are infected by dengue virus, centrifuge to remove excessive virus, and the cells are re-lysed in a cell culture medium containing the Antrodia camphorata extract ZAC (91.68 μg/mL) or the Antrodia camphorata extract YS-1 (176.51 μg/mL), respectively. […] Plaque assay will be used on the collected infected supernatant (n=3) to quantify a viral titer.

The test system of the next series is Meg-01 cells. Kind of series: Cell viability assay (WST-1) of Meg-01 cells. The class given is cell-based, human. To be noted: for IC10 (concentration that produces 10% inhibition of cell viability): Meg-01 cells, co-culture 7 days, WST-1, OD 440 nm; for effect on cell viability: 400 μg/mL; for effect on cell viability / toxicity on Meg-01 cells (cell viability): 7 days; for toxicity on Meg-01 cells (cell viability): low concentrations 25 μg/mL, 50 μg/mL. How it is done:
Meg-01 cell strains (CRL2021, ATCC, human myelo-megakaryocyte leukemia cell strains) are cultured in a RPMI medium with 10% fetal bovine serum, when a cell density reaches 80-90%, the cell sap can be withdrawn into a centrifuge tube, after being centrifuged in a centrifuge (600 rpm, 6 minutes), then remove the supernatant, and re-lyse the centrifuged cells with an appropriate amount of a culture medium for subculture or subsequent experiments.
1×10^3 Meg-01 cells are lysed in 100 μL of 10% fetal bovine serum in a RPMI culture medium and seeded into a 96-well U-shaped plate. Different concentrations of the Antrodia camphorata extract ZAC and the Antrodia camphorata extract YS-1 are added to the cells for co-culture at 37° C. for 7 days, while the cells added with dimethyl sulfoxide (DMSO) are used as an experimental control group.
Please refer to FIG. 1. FIG. 1 is a graph of viability of Meg-01 cells after adding the Antrodia camphorata extract according to one embodiment of the invention. The Meg-01 cells are co-cultured with different concentrations of the Antrodia camphorata extract ZAC or the Antrodia camphorata extract YS-1 respectively, and the group added with DMSO is used as an experimental control group. After the cells are co-cultured with the Antrodia camphorata extract for 7 days, WST-1 assay reagent is added to the cells and OD 440 nm value is collected to assay a toxicity of the drug on the cells, the cell group without addition of the Antrodia camphorata extract is regarded as an experimental control group, and the cell groups added with different concentrations of the Antrodia camphorata extract are regarded as experimental groups.
On the technique in general: Tetrazolium assays rely on reduction of a dye to a coloured formazan, in cell work by metabolically active cells.

The next series has as its system IL-6. As to the kind of experiment: IL-6 expression in infected supernatant of DENV-infected Meg-01 cells, enzyme immunoassay. It is filed as cell-based, human. To be noted: after dengue virus infection, extract at IC10 concentration. How it is done:
as §1

In a further series the test system is IFN-α. As to the kind of experiment: IFN-α expression in infected supernatant of DENV-infected Meg-01 cells, enzyme immunoassay. The class given is cell-based, human. As to conditions: 5th and 7th days after infection, extract at IC10 concentration; day 5 P value 0.0021. Here is the method:
as §1

SMILES strings stand for the structures. “And” between values parts separate entries of the source, which are not always exact repeats. Equal values may be shown once.

`COc1cc(C)c(OC)c2c1OCO2` [YS-1, 4,7-dimethoxy-5-methyl-1,3-benzodioxole]: the “expression of cellular inflammatory factor IL-8” value in the series on IL-8 is listed as “effectively reducing an expression”. In series [1] (176.51 μg/mL added after infection), the “dengue viral titer versus infected control” value is recorded as “significantly reducing the viral titer”. Besides, the “inhibitory effect on dengue virus (viral titer)” value in series [1] (high dose 176.51 μg/mL compared with low dose 25 μg/mL) is listed as “better inhibitory effect on dengue virus”; in series [1] (low dose 25 μg/mL), “inhibitory effect on dengue virus”. For the same molecule, in the series with Meg-01 cells, the “IC10 (concentration that produces 10% inhibition of cell viability)” value was 176.512 µg/mL and 176.51 µg/mL. Also, the “effect on cell viability” value with Meg-01 cells (higher concentrations 200 μg/mL) was “slight effect on cell viability”. For the same molecule, the “toxicity on Meg-01 cells (cell viability)” value with Meg-01 cells (100 μg/mL) was “generally not toxic”. Also, the “expression of cellular inflammatory factor IL-6” value in the series on IL-6 is listed as “effectively reducing an expression”.

With `C=C(CC[C@@H](C)[C@H]1CC[C@H]2C3=C(C(=O)[C@H](O)[C@]12C)[C@@]1(C)CC[C@@H](O)[C@@H](C)[C@@H]1CC3=O)C(C)C(=O)O` (stereo partly drawn) [ZAC, Zhankuic acid C], the “expression of cellular inflammatory factor IL-8” value in the series with IL-8 is given as “effectively reducing an expression”. In addition, the “amount of secretion of IFN-α versus infected control” value in the series on IFN-α is listed as “significantly higher”. The “dengue viral titer versus infected control” value in series [1] (91.68 μg/mL added 2 hours after infection, late stages of infection (5th to 7th days)) is “decreases significantly”. In the series with Meg-01 cells, the “IC10 (concentration that produces 10% inhibition of cell viability)” value was 91.675 µg/mL and 91.68 µg/mL; the “toxicity on Meg-01 cells (cell viability)” value is on record as “generally has no toxicity”. The “effect on cell viability” value in the series on Meg-01 cells (higher concentrations 100 μg/mL, 200 μg/mL) was “slight effect on cell viability”. Moreover, in the series with IL-6, the “expression of cellular inflammatory factor IL-6” value is recorded as “effectively reducing an expression”.

The values are drawn from patent publication US11883418B2, “Compound TSYI-ZAC for inhibiting dengue virus infection and medicinal use thereof” (Syi Biotechnology Co., Ltd., priority 2022, dated 2024).
